# Assay results published in patent publication US9187472B2 (AbbVie Inc., priority 2012, dated 2015).
# What was measured:
# NAMPT = NAMPT (Homo sapiens, UniProt P43490); assay: TR-FRET Binding Assay of NAMPT with PRPP; details: with 200 μM PRPP and 2.5 mM ATP; 2 nM NAMPT, 2 nM probe, 16 hours equilibration
# Method in brief: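 Substrate-containing variant: 200 μM PRPP plus 2.5 mM ATP are added to 2 nM NAMPT and 2 nM probe, with a 16-hour incubation ahead of TR-FRET reading.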
# PC3 cells = assay: NAMPT Cell Proliferation Assay; format: cell-based; details: Homo sapiens, PC-3, 120 h, 5 days incubation, cell viability by Cell Titer Glo
# Method in brief: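 Seed PC3 at 500 cells/well (RPMI, 10% HI-FBS), attach overnight; add compound, 10-fold series 10 μM → 1×10^−5 μM; incubate 5 d, 37° C/5% CO2; luminescent viability readout; fit % inhibition sigmoidally for IC50.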
# [1] = biological target: NAMPT (human, recombinant, C-terminally His-tagged) (Homo sapiens, UniProt P43490); assay: Time-Resolved Fluorescence Resonance Energy Transfer (TR-FRET) Binding Assay of NAMPT; details: without substrates; 6.8 nM NAMPT, 200 nM probe, 3 hours equilibration
# Chain of NAMPT (human, recombinant, C-terminally His-tagged) (P43490 whole entry): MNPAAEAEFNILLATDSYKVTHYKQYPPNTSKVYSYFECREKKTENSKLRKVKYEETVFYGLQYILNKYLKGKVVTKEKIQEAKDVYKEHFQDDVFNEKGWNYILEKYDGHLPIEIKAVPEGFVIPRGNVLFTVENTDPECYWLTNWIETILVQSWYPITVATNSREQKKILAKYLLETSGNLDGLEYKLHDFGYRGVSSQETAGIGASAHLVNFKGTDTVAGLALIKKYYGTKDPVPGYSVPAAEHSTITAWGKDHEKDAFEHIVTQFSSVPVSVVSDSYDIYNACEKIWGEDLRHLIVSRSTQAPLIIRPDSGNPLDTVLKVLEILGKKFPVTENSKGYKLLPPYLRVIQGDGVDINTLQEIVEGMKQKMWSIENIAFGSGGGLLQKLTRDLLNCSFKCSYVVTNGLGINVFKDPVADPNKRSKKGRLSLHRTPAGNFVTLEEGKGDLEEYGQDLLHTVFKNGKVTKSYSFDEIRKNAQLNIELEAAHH
# Method in brief: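 In a displacement format, the nicotinamide-site tracer at 200 nM competed with test compound for 6.8 nM enzyme detected via 1 nM terbium anti-His antibody; incubation lasted 3 hours at room temperature in 50 mM HEPES pH 7.5, 100 mM NaCl. Normalized 520/495 nm emission ratios gave IC50 values.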
# Chain of NAMPT (P43490 whole entry): as above
IC50 (NAMPT) [nM],IC50 (PC3 cells) [nM],IC50 [1] [nM],SMILES
0.403,6.66,51.6,"O=C(NCc1ccn2ccnc2c1)c1ccc(C2CCN(C(=O)CC(F)(F)F)CC2)s1 [Example 572, N-(imidazo[1,2-a]pyridin-7-ylmethyl)-5-[1-(3,3,3-trifluoropropanoyl)piperidin-4-yl]thiophene-2-carboxamide]"
0.505,25.4,1570,"Cc1cc(CC(=O)N(C[C@H]2CCCO2)c2ncc(C(=O)NCc3ccn4ccnc4c3)s2)nn1C [Example 197, 2-{[(1,5-dimethyl-1H-pyrazol-3-yl)acetyl][(2R)-tetrahydrofuran-2-ylmethyl]amino}-N-(imidazo[1,2-a]pyridin-7-ylmethyl)-1,3-thiazole-5-carboxamide]"
0.335,240,869,"O=C(NCc1ccn2ccnc2c1)c1ccc(OC2CN(C(=O)c3ccccc3)C2)cc1 [Example 561, 4-[(1-benzoylazetidin-3-yl)oxy]-N-(imidazo[1,2-a]pyridin-7-ylmethyl)benzamide]"
0.736,105,904,"O=C(NCc1ccn2ccnc2c1)c1ccc(C2CCN(C(=O)C3CCS(=O)(=O)CC3)CC2)cc1 [Example 234, 4-{1-[(1,1-dioxidotetrahydro-2H-thiopyran-4-yl)carbonyl]piperidin-4-yl}-N-(imidazo[1,2-a]pyridin-7-ylmethyl)benzamide]"
10.9,762,1670,"O=C(CC1CCCC1)Nc1ccc(CNC(=O)c2ccc3nccn3c2)cc1 [Example 84, N-{4-[(cyclopentylacetyl)amino]benzyl}imidazo[1,2-a]pyridine-6-carboxamide]"
0.911,33.2,711,"CCC(C)CC(=O)N1CCC(c2ccc(C(=O)NCc3ccn4ccnc4c3)cc2)C1 (stereo not drawn) [Example 582, N-(imidazo[1,2-a]pyridin-7-ylmethyl)-4-[1-(3-methylpentanoyl)pyrrolidin-3-yl]benzamide]"
0.607,70.9,218,"O=C(NCc1ccn2ccnc2c1)c1ccc(C2CCN(C(=O)c3ccc(F)cc3)C2)cc1 (stereo not drawn) [Example 562, 4-[1-(4-fluorobenzoyl)pyrrolidin-3-yl]-N-(imidazo[1,2-a]pyridin-7-ylmethyl)benzamide]"
0.243,13.8,604,"O=C(NCc1ccn2ccnc2c1)c1ccc(C2CCN(C(=O)CC3CCOCC3)CC2)cc1 [Example 236, N-(imidazo[1,2-a]pyridin-7-ylmethyl)-4-[1-(tetrahydro-2H-pyran-4-ylacetyl)piperidin-4-yl]benzamide]"
0.589,36,232,"O=C(NCc1ccn2ccnc2c1)c1ccc(C2CN(C(=O)CC3CCCCC3)C2)cc1 [Example 657, 4-[1-(cyclohexylacetyl)azetidin-3-yl]-N-(imidazo[1,2-a]pyridin-7-ylmethyl)benzamide]"
0.227,69,153,"CC(C)C(=O)N1CC(Oc2ccc(NC(=O)NCc3ccn4ccnc4c3)cc2)C1 [Example 425, 1-(imidazo[1,2-a]pyridin-7-ylmethyl)-3-(4-{[1-(2-methylpropanoyl)azetidin-3-yl]oxy}phenyl)urea]"
0.544,98.3,138,"O=C(NCc1ccn2ccnc2c1)c1ccc(C2CCN(C(=O)c3cccs3)C2)cc1 (stereo not drawn) [Example 488, N-(imidazo[1,2-a]pyridin-7-ylmethyl)-4-[1-(thiophen-2-ylcarbonyl)pyrrolidin-3-yl]benzamide]"
6.29,96.4,2100,"O=C(NCc1ccc2nccn2c1)c1ccc(OC2CCN(C(=O)C3COCCO3)CC2)cc1 (stereo not drawn) [Example 163, 4-{[1-(1,4-dioxan-2-ylcarbonyl)piperidin-4-yl]oxy}-N-(imidazo[1,2-a]pyridin-6-ylmethyl)benzamide]"
1.94,> 10000,5030,"O=C(NCc1ccn2ccnc2c1)c1cnc(-c2ccccc2)s1 [Example 361, N-(imidazo[1,2-a]pyridin-7-ylmethyl)-2-phenyl-1,3-thiazole-5-carboxamide]"
0.797,9180,> 10000,"O=C(NCc1ccn2ccnc2c1)c1ccc(O[C@H]2CCN(C(=O)[C@@H]3CCOC3)C2)cc1 [Example 339, N-(imidazo[1,2-a]pyridin-7-ylmethyl)-4-({(3S)-1-[(3R)-tetrahydrofuran-3-ylcarbonyl]pyrrolidin-3-yl}oxy)benzamide]"
0.359,37.4,167,"CC(C)S(=O)(=O)N1CC(c2ccc(C(=O)NCc3ccn4ccnc4c3)cc2)C1 [Example 557, N-(imidazo[1,2-a]pyridin-7-ylmethyl)-4-[1-(propan-2-ylsulfonyl)azetidin-3-yl]benzamide]"
1.19,19.8,83.9,"O=C(NCc1ccn2ccnc2c1)Nc1ccc(O[C@@H]2CCN(C(=O)c3ccc(F)cc3F)C2)cc1 [Example 692, 1-(4-{[(3R)-1-(2,4-difluorobenzoyl)pyrrolidin-3-yl]oxy}phenyl)-3-(imidazo[1,2-a]pyridin-7-ylmethyl)urea]"
0.674,5.44,82,"CC(C)(C)CC(=O)N1CCC(c2ccc(C(=O)NCc3ccn4ccnc4c3)s2)C1 (stereo not drawn) [Example 788, 5-[1-(3,3-dimethylbutanoyl)pyrrolidin-3-yl]-N-(imidazo[1,2-a]pyridin-7-ylmethyl)thiophene-2-carboxamide]"
0.512,3.05,72.7,"O=C(NCc1ccc2nccn2c1)c1cnc(N(CC2CCCO2)C(=O)CCc2nccs2)s1 (stereo not drawn) [Example 136, N-(imidazo[1,2-a]pyridin-6-ylmethyl)-2-{(tetrahydrofuran-2-ylmethyl)[3-(1,3-thiazol-2-yl)propanoyl]amino}-1,3-thiazole-5-carboxamide]"
0.403,7.69,261,"O=C(NCc1ccc2nccn2c1)c1cnc(N(C[C@H]2CCCO2)C(=O)C2CCOC2)s1 (stereo partly drawn) [Example 146, N-(imidazo[1,2-a]pyridin-6-ylmethyl)-2-{(tetrahydrofuran-3-ylcarbonyl)[(2R)-tetrahydrofuran-2-ylmethyl]amino}-1,3-thiazole-5-carboxamide]"
0.352,7.82,120,"O=C(NCc1ccn2ccnc2c1)Nc1ccc(C2CCN(C(=O)C3CCOCC3)CC2)cc1 [Example 221, 1-(imidazo[1,2-a]pyridin-7-ylmethyl)-3-{4-[1-(tetrahydro-2H-pyran-4-ylcarbonyl)piperidin-4-yl]phenyl}urea]"
0.504,80,313,"CC(C)S(=O)(=O)N1CCC(c2ccc(C(=O)NCc3ccn4ccnc4c3)cc2)C1 (stereo not drawn) [Example 672, N-(imidazo[1,2-a]pyridin-7-ylmethyl)-4-[1-(propan-2-ylsulfonyl)pyrrolidin-3-yl]benzamide]"
0.526,7490,> 10000,"CC(C)(O)CC(=O)N1CC[C@H](Oc2ccc(C(=O)NCc3ccn4ccnc4c3)cc2)C1 [Example 354, 4-{[(3S)-1-(3-hydroxy-3-methylbutanoyl)pyrrolidin-3-yl]oxy}-N-(imidazo[1,2-a]pyridin-7-ylmethyl)benzamide]"
0.176,67.8,175,"O=C(NCc1ccn2ccnc2c1)Nc1ccc(OC2CCN(C(=O)[C@H]3CCCO3)CC2)cc1 [Example 448, 1-(imidazo[1,2-a]pyridin-7-ylmethyl)-3-[4-({1-[(2R)-tetrahydrofuran-2-ylcarbonyl]piperidin-4-yl}oxy)phenyl]urea]"
0.474,34,91,"O=C(NCc1ccn2ccnc2c1)c1ccc(C2CN(C(=O)c3ccc(Cl)cc3)C2)cc1 [Example 645, 4-[1-(4-chlorobenzoyl)azetidin-3-yl]-N-(imidazo[1,2-a]pyridin-7-ylmethyl)benzamide]"
0.456,16.5,250,"CC(C)OCC(=O)N1CCC(CCCCNC(=O)Nc2ccc3nccn3c2)CC1 [Example 62, 1-imidazo[1,2-a]pyridin-6-yl-3-(4-{1-[(propan-2-yloxy)acetyl]piperidin-4-yl}butyl)urea]"
0.454,6730,> 10000,"O=C(NCc1ccn2ccnc2c1)c1ccc(O[C@H]2CCN(C(=O)C3CCOCC3)C2)cc1 [Example 342, N-(imidazo[1,2-a]pyridin-7-ylmethyl)-4-{[(3S)-1-(tetrahydro-2H-pyran-4-ylcarbonyl)pyrrolidin-3-yl]oxy}benzamide]"
0.266,21.3,117,"O=C(NCc1ccn2ccnc2c1)c1ccc(C2CCN(C(=O)c3cccc(F)c3)CC2)cc1 [Example 516, 4-[1-(3-fluorobenzoyl)piperidin-4-yl]-N-(imidazo[1,2-a]pyridin-7-ylmethyl)benzamide]"
0.835,2.37,6.32,"O=C(NCc1ccn2ccnc2c1)Nc1ccc(C2CCN(C(=O)c3ccccc3F)CC2)cc1 [Example 719, 1-{4-[1-(2-fluorobenzoyl)piperidin-4-yl]phenyl}-3-(imidazo[1,2-a]pyridin-7-ylmethyl)urea]"
